The text below walks through data of US20250057819A1, “DRUG COMBINATIONS FOR INHIBITING CORONAVIRUS REPLICATION” (priority 2021, published 2025).

Each structure is given as a SMILES string. pEC50, pIC50: −log10 of the molar value. Counter-ions that a name gives are not always drawn. Like-named read-outs stand apart in the source and are kept apart here.

Series [1] has as its system SARS-CoV-2. Particulars: reports from in vitro studies (ref. 16); cited from earlier work.
Another series deals with Covid-19. Particulars: adults hospitalized with Covid-19 (ref. 17); cited from earlier work.
Another series deals with Huh7.5 cells. Put plainly: Cell viability assay (MTT) in Huh7.5 cells. The format is cell-based, human. Particulars: Huh7.5 (B), read-out: SARS-CoV-2 CC50. On the procedure:
(§1) Cell viability was monitored by a mitochondrial activity test using methyl-thiazolyl-tetrazolium (MTT, Sigma). After 48 hours of drug treatment, cells were treated with 1 mg/ml of MTT during 3 hours at 37° C. The supernatants were removed and the MTT crystals were dissolved using DMSO and a shaker. The absorbance was read with a Tecan Spark at 570 nm with reference at 650 nm.
(§2) Only the most promising molecules or those studied in synergy were tested in Calu3 cells.

The subject of a further series is Calu3 cells. Briefly: Cell viability assay (MTT) in Calu3 cells. The format is cell-based, Human. Particulars: Calu3 (C), read-out: SARS-CoV-2 CC50. Here is the method:
as §1, §2

Series [2] deals with SARS-CoV-2. Briefly: microbe, parasite or virus in culture. Format: cell-based. The settings on record: for pEC50: read-out: SARS-CoV-2 EC50.
In series [3] the test system is SARS-CoV-2. Briefly: Drug tests in SARS-CoV-2 model, Calu3 cells, viral titration by plaque assay in Vero E6. Particulars: read-out: SARS-CoV-2 EC50; Calu3 (C), MOI 0.05, 48 h treatment.
For the next series, the system named is rHCoVs-OC43. Briefly: organism not typed. Particulars: for pIC50: drug 2 alone (fast synergy screening table), read-out: IC50; for pEC50: drug alone, HRT-18 cells, MOI 0.025, 48 h treatment, decrease of Rluc, read-out: EC50. Format: cell-based.
Another series relates to HRT-18 cells. Put plainly: Cell viability assay (MTT) in HRT-18 cells.
The nature of series [4]: Cell viability assay (MTT) in Huh7.5 cells. The format is cell-based, human. The settings on record: human, Huh7.5 cells, Huh7.5 (B), read-out: SARS-CoV-2 CC50. On the procedure: as §1, §2
Series [5] in a line: Cell viability assay (MTT) in Calu3 cells. The format is cell-based, Human. The settings on record: human, Calu3 cells, Calu3 (C), read-out: SARS-CoV-2 CC50. On the procedure:
as §1, §2

A short description of series [6]: Cell viability assay (MTT) in HRT-18 cells. Particulars: human, CC50 (μM).
[7] abbreviates: drug 2 alone (fast synergy screening table).
[8] abbreviates: drug alone, HRT-18 cells, 48 h treatment, MTT.
Where [9] appears, read: Severe acute respiratory syndrome coronavirus 2, Huh7.5, 48 h.

In the case of `Cc1cccc(C)c1OCC(=O)N[C@@H](Cc1ccccc1)[C@@H](O)C[C@H](Cc1ccccc1)NC(=O)[C@H](C(C)C)N1CCCNC1=O` [Lopinavir], the pEC50 (usually −log10 of the EC50, conventionally taken in molar units) in the series on SARS-CoV-2 [1] was 4.59. In addition, the clinical benefit entry in the series with Covid-19 was “no benefit was observed”.

As for `CC(C)C(=O)OC[C@H]1O[C@@H](n2cc/c(=N\O)[nH]c2=O)[C@H](O)[C@@H]1O` [Molnupinavir], the CC50 with Huh7.5 cells and in the series on Calu3 cells was greater than 10 µM in each case. Also, the values for the pEC50 with SARS-CoV-2 [2] and in the series on SARS-CoV-2 [3] were 7.08 and 7.46, respectively.

Consider `COc1c(C)c2c(c(O)c1C/C=C(\C)CCC(=O)OCCN1CCOCC1)C(=O)OC2` [Mycophenolate mofetil], for which the results for the CC50 in the series with Huh7.5 cells, with HRT-18 cells (setting [7]) and in the series on HRT-18 cells (setting [8]) were 9.1 µM, greater than 10 µM and greater than 10 µM, respectively. Further, the pIC50 – broadly, the IC50 on a negative log10 scale, so that one unit is a factor of ten – in the series on rHCoVs-OC43 is 6.74. Moreover, the pEC50 in the series on rHCoVs-OC43 is 6.74; with SARS-CoV-2 [2] it was 5.93.

`Cc1c(O)cccc1C(=O)N[C@@H](CSc1ccccc1)[C@H](O)CN1C[C@H]2CCCC[C@H]2C[C@H]1C(=O)NC(C)(C)C` [Nelfinavir mesylate]: the CC50 at 48 h in [4], in series [5], in [6] (setting [7]) and in series [6] (setting [8]) was greater than 10 µM each time. Besides, the pIC50 in the series on rHCoVs-OC43 (48 h) and with rHCoVs-OC43 was 5.59 each time. Besides, the pEC50 in the series with rHCoVs-OC43 is 5.59; with SARS-CoV-2 [2] (setting [9]), 5.77; with SARS-CoV-2 [3], 6.96.

In the case of `CC(=O)Oc1ccccc1C(=O)Nc1ncc([N+](=O)[O-])s1` [Nitazoxanide], the CC50 at 48 h in series [4], in [6] (setting [7]) and in [6] (setting [8]) was greater than 10 µM each time. In the series on rHCoVs-OC43 (48 h), the pIC50 is 5.88. Moreover, the values for the pEC50 in the series on rHCoVs-OC43 and in the series with SARS-CoV-2 [2] (setting [9]) were 5.88 and 6.27, respectively.

For `CCC(CC)COC(=O)[C@H](C)N[P@](=O)(OC[C@H]1O[C@@](C#N)(c2ccc3c(N)ncnn23)[C@H](O)[C@@H]1O)Oc1ccccc1` [Remdesivir], the half-maximal cytotoxic concentration (CC50) (in general, the concentration that lowers cell viability or growth by half) at 48 h in series [4] was greater than 10 µM; in [5] it was greater than 10 µM; in [6] (setting [7]), 2.5 µM; in series [6] (setting [8]) it was 2.5 µM. Moreover, the pIC50 with rHCoVs-OC43 (48 h) and with rHCoVs-OC43 was 7.47 each time. In addition, the results for the pEC50 in the series with rHCoVs-OC43, with SARS-CoV-2 [2] (setting [9]) and with SARS-CoV-2 [3] were 7.47, no less than 9.00 and 8.40, respectively.

Consider `CCN(CC)CCOc1ccc2c(c1)C(=O)c1cc(OCCN(CC)CC)ccc1-2` [Tilorone dihydrochloride], for which the CC50 at 48 h in series [4], in [5] and in series [6] (setting [8]) was greater than 10 µM each time. Also, the pEC50 in the series with rHCoVs-OC43 is 7.85; in the series with SARS-CoV-2 [2] (setting [9]) it was 6.30; with SARS-CoV-2 [3], 7.15.

With `CN1CCN(CCCN2c3ccccc3Sc3ccc(C(F)(F)F)cc32)CC1` [Trifluoperazine dihydrochloride], the half-maximal cytotoxic concentration (CC50) at 48 h in series [4], in series [6] (setting [7]) and in series [6] (setting [8]) was greater than 10 µM throughout. The pIC50 in the series on rHCoVs-OC43 (48 h) and in the series with rHCoVs-OC43 was 5.54 throughout. The results for the pEC50 in the series with rHCoVs-OC43 and in the series on SARS-CoV-2 [2] (setting [9]) were 5.54 and less than 5.00, respectively. For the same molecule, in the series on SARS-CoV-2 [2] (drug alone, SARS-CoV-2, words), the “inhibitory effect on viral replication” value is given as “did not show any significant inhibition of viral replication”.
